Laboratory results published in patent US6376670B1, “Quinoline-indole antimicrobial agents, uses and compositions related thereto” (Sepracor Inc., priority 1997, dated 2002).
Where two headings read alike, the source gives them in different places.

Legend:
Assay in all cases: Determination of MIC values (BHI broth, 96 well microtiter plate)
Type in all cases: cell-based
[1] = tested on: methicillin-resistant Staphylococcus aureus (MRSA); settings: MRSA, BHI broth; for MIC: Staphylococcus aureus, read-out: MIC MRSA
Method in brief: (§1)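 Here, each test series spans final concentrations of 25 to 0.39 µg/mL in BHI broth, with DMSO as diluent. Plates seeded at 10^5–10^6 cells/mL are kept at 37° C and approx. 7-10% CO2 for about 16 hours before growth is scored.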

[2] = tested on: vancomycin-resistant Enterococcus spp. (VRE); settings: BHI broth; for MIC: Enterococcus, VRE, read-out: MIC VREF
Method in brief: as §1

Streptococcus pneumoniae = settings: Streptococcus pneumoniae, BHI broth, read-out: MIC S. pneu
Method in brief: as §1

[3] = 16 h, 37° C., overnight (about 16 hours)
[4] = 37° C., overnight (about 16 hours)

| MIC ([1]; overnight 37° C.) [µg/mL] | MIC ([2]; VREF, overnight 37° C.) [µg/mL] | MIC (Streptococcus pneumoniae; S. pneu, overnight 37° C.) [µg/mL] | MIC ([1]; 16 h, 37° C., about 16 hours) [µg/mL] | MIC ([2]; 16 h, 37° C., about 16 hours) [µg/mL] | MIC (Streptococcus pneumoniae; 37° C., about 16 hours) [µg/mL] | Compound | other results |
| --- | --- | --- | --- | --- | --- | --- | --- |
| < 7 | < 7 | < 7 |  |  |  | Cn1cc(-c2cc(C(=O)NCc3ccc(CN)cc3)c3cc(Cl)ccc3n2)c2cc(Br)ccc21 [Example 365] |  |
| > 25 | > 25 | > 25 |  |  |  | Clc1cc(-c2c(-c3ccccc3)[nH]c3ccccc23)nc2ccccc12 [Example 353] |  |
|  |  |  | < 7 | < 7 | < 7 | Cc1cc2ccccc2nc1-c1c[nH]c2ccc(Cl)cc12 [Example 531] |  |
|  |  |  | < 7 | < 7 | < 7 | CN(C)CCNCC#Cc1ccc2nc(-c3cn(C)c4ccc(Br)cc34)cc(C(=O)NCCN)c2c1 [Example 402] |  |
| < 7 | < 7 | < 7 |  |  |  | NCc1ccc(CNC(=O)c2cc(-c3c[nH]c4ccc(Br)cc34)nc3cc(Cl)c(C#CCN4CC=CCC4)cc23)cc1 [Example 282] |  |
|  |  |  | < 7 | < 25 | < 7 | OCc1cc(-c2c[nH]c3ccc(Br)cc23)nc2ccc(F)cc12 [Example 443] |  |
|  |  | < 7 |  |  |  | NCC1CCCC(CNC(=O)c2cc(-c3c[nH]c4ccc(Br)cc34)nc3cc(F)ccc23)C1 (stereo not drawn) [Example 298] | MIC MRSA ([1]; overnight 37° C.): < 7 µg/mL; MIC VREF ([2]; VREF, overnight 37° C.): <7 µg/mL |
|  |  |  | < 7 | < 7 | < 7 | Clc1ccc2c(Cl)cc(-c3c[nH]c4ccc(Cl)cc34)nc2c1 [Example 475] |  |
| < 7 | < 7 | < 7 |  |  |  | NCc1cccc(CNC(=O)c2cc(-c3c[nH]c4ccc(Br)cc34)nc3cc(I)ccc23)c1 [Example 252] |  |
| < 7 | < 7 | < 7 |  |  |  | NCc1cccc(CNC(=O)c2cc(-c3c[nH]c4ccc(Br)cc34)nc3cc(Cl)cc(Cl)c23)c1 [Example 246] |  |
| < 7 | < 7 | < 7 |  |  |  | NCC1CCCC(CNC(=O)c2cc(-c3c[nH]c4ccc(Br)cc34)nc3c(F)cccc23)C1 (stereo not drawn) [Example 259] |  |
|  |  |  | < 7 | < 7 | < 7 | Cn1cc(-c2cc(C(=O)NCCN)c3cc(C#CCN4CC=CC4)ccc3n2)c2cc(Br)ccc21 [Example 406] |  |
|  |  |  | > 25 | > 25 | > 25 | Cc1ccc2nc(-c3c[nH]c4ccc(Cl)cc34)ccc2c1 [Example 441] |  |
| < 7 | < 7 | < 7 |  |  |  | NCC1CCC(CNC(=O)c2cc(-c3c[nH]c4ccc(Br)cc34)nc3c(F)cccc23)CC1 (stereo not drawn) [Example 258] |  |
|  |  |  | < 7 | < 7 | < 7 | CN(CC#Cc1ccc2nc(-c3cn(C)c4ccc(Br)cc34)cc(C(=O)NCCN)c2c1)C1CCCCC1 [Example 407] |  |
| > 25 | > 25 | > 25 |  |  |  | CCOC(=O)n1cc(-c2cc(C(=O)NCc3ccc(CN)cc3)c3cc(C#CCN4CCCCC4)ccc3n2)c2cc(Br)ccc21 [Example 337] |  |
| > 25 | > 25 | > 25 |  |  |  | O=[N+]([O-])c1cccc2nc(-c3c[nH]c4cc(F)ccc34)ccc12 [Example 388] |  |
| < 7 | > 25 | < 7 |  |  |  | Clc1ccc2c(-c3cc(Cl)c4ccccc4n3)c[nH]c2c1 [Example 343] |  |
| < 7 | < 7 | < 7 |  |  |  | Clc1cc(-c2c[nH]c3cccc(Cl)c23)nc2ccccc12 [Example 341] |  |
| < 7 | < 7 | < 7 |  |  |  | Cn1cc(-c2cc(C(=O)NCC3CCC(CN)CC3)c3ccc(I)cc3n2)c2cc(Br)ccc21 (stereo not drawn) [Example 331] |  |
|  |  |  | < 7 | > 25 | < 7 | CC(C)(C)NC(=O)NCc1cc(-c2c[nH]c3ccc(Br)cc23)nc2cc(Cl)ccc12 [Example 521] |  |

Second part, the compound before the results:

| Compound | MIC ([1]; overnight 37° C.) [µg/mL] | MIC ([2]; VREF, overnight 37° C.) [µg/mL] | MIC (Streptococcus pneumoniae; S. pneu, overnight 37° C.) [µg/mL] | MIC ([1]; 16 h, 37° C., about 16 hours) [µg/mL] | MIC ([2]; 16 h, 37° C., about 16 hours) [µg/mL] | MIC (Streptococcus pneumoniae; 37° C., about 16 hours) [µg/mL] | other results |
| --- | --- | --- | --- | --- | --- | --- | --- |
| Fc1ccc2c(-c3ccc4ccccc4n3)c[nH]c2c1 [Example 183] |  |  |  |  |  |  | MIC [1, 3]: < 25 µg/mL; MIC [2, 3]: > 25 µg/mL; MIC (Streptococcus pneumoniae; [4]): > 25 µg/mL |
| COc1ccc2nc(-c3c[nH]c4ccccc34)ccc2c1 [Example 480] |  |  |  | > 25 | > 25 | > 25 |  |
| CN1CCN(CC#Cc2ccc3nc(-c4cn(C)c5ccc(Br)cc45)cc(C(=O)NCc4ccc(CN)cc4)c3c2)CC1 [Example 395] | < 7 | < 25 | < 25 |  |  |  |  |
| Cc1cccc2ccc(-c3c[nH]c4ccc(Cl)cc34)nc12 [Example 427] |  |  |  | > 25 | > 25 | > 25 |  |
| NCCCCCCNC(=O)c1cc(-c2c[nH]c3ccc(Br)cc23)nc2ccc(I)cc12 [Example 111] |  |  |  |  |  |  | MIC [1, 3]: < 7 µg/mL; MIC [2, 3]: < 7 µg/mL; MIC (Streptococcus pneumoniae; [4]): < 7 µg/mL |
| CN(C)CCN(C)C(=O)c1cc(-c2c[nH]c3ccc(Br)cc23)nc2ccc(I)cc12 [Example 499] |  |  |  | < 7 | < 7 | < 7 |  |
| OCc1cc(-c2c[nH]c3ccc(Br)cc23)nc2cc(Cl)c(C#CCN3CCCCC3)cc12 [Example 518] |  |  |  | < 7 | < 7 | < 7 |  |
| Cn1cc(-c2cc(C(=O)NCc3ccc(CN)cc3)c3ccccc3n2)c2cc(Br)ccc21 [Example 119] |  |  |  |  |  |  | MIC [1, 3]: < 7 µg/mL; MIC [2, 3]: < 25 µg/mL; MIC (Streptococcus pneumoniae; [4]): < 7 µg/mL |
| Brc1ccc2[nH]cc(-c3ccc4ccccc4n3)c2c1 [Example 165] |  |  |  |  |  |  | MIC [1, 3]: < 7 µg/mL; MIC [2, 3]: < 7 µg/mL; MIC (Streptococcus pneumoniae; [4]): < 7 µg/mL |
| NCC1CCCC(CNC(=O)c2cc(-c3c[nH]c4ccc(Br)cc34)nc3ccc(I)cc23)C1 (stereo not drawn) [Example 115] |  |  |  |  |  |  | MIC [1, 3]: < 7 µg/mL; MIC [2, 3]: < 7 µg/mL; MIC (Streptococcus pneumoniae; [4]): < 7 µg/mL |
| NCc1ccc(CNC(=O)c2cc(-c3c[nH]c4ccc(Br)cc34)nc3ccc(/C=C/c4ccccc4)cc23)cc1 [Example 228] | > 25 | > 25 | > 25 |  |  |  |  |
| COc1ccc2[nH]cc(-c3ccc4cc(Cl)ccc4n3)c2c1 [Example 195] |  |  |  |  |  |  | MIC [1, 3]: > 25 µg/mL; MIC [2, 3]: > 25 µg/mL; MIC (Streptococcus pneumoniae; [4]): > 25 µg/mL |
| Clc1ccc2nc(-c3c[nH]c4ccc(Cl)cc34)ccc2c1 [Example 169] |  |  |  |  |  |  | MIC [1, 3]: < 7 µg/mL; MIC [2, 3]: > 25 µg/mL; MIC (Streptococcus pneumoniae; [4]): < 7 µg/mL |
| NCc1ccc(CNC(=O)c2cc(-c3c[nH]c4ccc(Br)cc34)nc3c(Cl)cccc23)cc1 [Example 143] |  |  |  |  |  |  | MIC [1, 3]: < 7 µg/mL; MIC [2, 3]: < 7 µg/mL; MIC (Streptococcus pneumoniae; [4]): < 7 µg/mL |
| NCc1ccc(CNC(=O)c2cc(-c3c[nH]c4ccc(Br)cc34)nc3cc(Cl)c(C#CCNCCc4ccc(Cl)cc4)cc23)cc1 [Example 274] | < 25 | > 25 | < 7 |  |  |  |  |
| Fc1ccc2c(-c3cc(Cl)c4ccccc4n3)c[nH]c2c1 [Example 340] | < 7 | < 7 | < 7 |  |  |  |  |

| Compound | MIC ([1]; overnight 37° C.) [µg/mL] | MIC ([2]; VREF, overnight 37° C.) [µg/mL] | MIC (Streptococcus pneumoniae; S. pneu, overnight 37° C.) [µg/mL] | MIC ([1]; 16 h, 37° C., about 16 hours) [µg/mL] | MIC ([2]; 16 h, 37° C., about 16 hours) [µg/mL] | MIC (Streptococcus pneumoniae; 37° C., about 16 hours) [µg/mL] | other results |
| --- | --- | --- | --- | --- | --- | --- | --- |
| Cc1ccc2c(C(=O)NCc3ccc(CN)cc3)cc(-c3c[nH]c4ccc(Br)cc34)nc2c1 [Example 161] |  |  |  |  |  |  | MIC [1, 3]: < 7 µg/mL; MIC [2, 3]: < 7 µg/mL; MIC (Streptococcus pneumoniae; [4]): < 7 µg/mL |
| OCc1cc(-c2c[nH]c3ccc(Br)cc23)nc2c(I)cccc12 [Example 454] |  |  |  | < 7 | < 7 | < 7 |  |
| Cc1[nH]c2ccc(Cl)cc2c1-c1cc(Cl)c2ccc(Cl)cc2n1 [Example 473] |  |  |  | < 7 | < 25 | < 7 |  |
| CN(CC[N+](C)(C)C)C(=O)c1cc(-c2c[nH]c3ccc(Br)cc23)nc2cc(Cl)ccc12 [Example 520] |  |  |  | < 7 | < 7 | < 7 |  |
| O=[N+]([O-])c1cccc2nc(-c3c[nH]c4ccc(Br)cc34)ccc12 [Example 387] | > 25 | > 25 | > 25 |  |  |  |  |
| COc1ccc(NC(=O)c2cc(-c3c[nH]c4ccc(Br)cc34)nc3ccc(C(F)(F)F)cc23)cc1 [Example 170] |  |  |  |  |  |  | MIC [1, 3]: < 7 µg/mL; MIC [2, 3]: > 25 µg/mL; MIC (Streptococcus pneumoniae; [4]): < 7 µg/mL |
| O=[N+]([O-])c1ccc2[nH]cc(-c3ccc4cc(Cl)ccc4n3)c2c1 [Example 196] |  |  |  |  |  |  | MIC [1, 3]: < 7 µg/mL; MIC [2, 3]: > 25 µg/mL; MIC (Streptococcus pneumoniae; [4]): < 25 µg/mL |
| NCc1cc(-c2c[nH]c3ccc(Br)cc23)nc2cc(F)ccc12 [Example 509] |  |  |  | < 7 | < 7 | < 7 |  |
| O=C(Nc1ccc(O)cc1)c1cc(-c2c[nH]c3ccc(Br)cc23)nc2ccc(C(F)(F)F)cc12 [Example 171] |  |  |  |  |  |  | MIC [1, 3]: < 7 µg/mL; MIC [2, 3]: < 7 µg/mL; MIC (Streptococcus pneumoniae; [4]): < 7 µg/mL |
| c1ccc(COc2ccc3[nH]cc(-c4ccc5ccccc5n4)c3c2)cc1 [Example 184] |  |  |  |  |  |  | MIC [1, 3]: > 25 µg/mL; MIC [2, 3]: > 25 µg/mL; MIC (Streptococcus pneumoniae; [4]): < 7 µg/mL |
| Cn1cc(-c2cc(C(=O)NCc3ccc(CN)cc3)c3cc(C#CCNCCc4ccc(Cl)cc4)ccc3n2)c2cc(Br)ccc21 [Example 390] | < 25 | < 7 | < 7 |  |  |  |  |
| NCc1ccc(CNC(=O)c2cc(-c3c[nH]c4ccc(Br)cc34)nc3cc(C#CCN4CC=CCC4)ccc23)cc1 [Example 304] | < 7 | < 7 | < 7 |  |  |  |  |
| NCCNC(=O)c1cc(-c2c[nH]c3ccc(Br)cc23)nc2c(Cl)cccc12 [Example 318] | < 7 | < 7 | < 7 |  |  |  |  |
| Cn1cc(-c2cc(C(=O)NCC3CCC(CN)CC3)c3cc(I)ccc3n2)c2cc(Br)ccc21 (stereo not drawn) [Example 357] | < 7 | < 7 | < 7 |  |  |  |  |
| NCCCCCNC(=O)c1cc(-c2c[nH]c3ccc(Br)cc23)nc2ccc(I)cc12 [Example 110] |  |  |  |  |  |  | MIC [1, 3]: < 7 µg/mL; MIC [2, 3]: < 7 µg/mL; MIC (Streptococcus pneumoniae; [4]): < 7 µg/mL |
